# From EP4806891A1 (Kangbaida (Sichuan) Biotechnology Co., Ltd., priority 2023, dated 2025)
# pIC50: −log10 of the molar value.
# Tests used:
# HEK-Blue-hTLR7 cells = target: T1, HEK-Blue-hTLR7 cells (Homo sapiens, UniProt Q9NYK1); test: HEK-Blue-hTLR7 cell inhibition assay; type: cell-based; details: R848 0.8 µM, 16 h, OD 620 nm, read-out: TLR7 IC50
# T1 construct: expressed in transfected cells; host or cells: HEK-Blue-hTLR7 cells (HEK293-derived reporter line)
# T1 sequence (Q9NYK1 27-1049): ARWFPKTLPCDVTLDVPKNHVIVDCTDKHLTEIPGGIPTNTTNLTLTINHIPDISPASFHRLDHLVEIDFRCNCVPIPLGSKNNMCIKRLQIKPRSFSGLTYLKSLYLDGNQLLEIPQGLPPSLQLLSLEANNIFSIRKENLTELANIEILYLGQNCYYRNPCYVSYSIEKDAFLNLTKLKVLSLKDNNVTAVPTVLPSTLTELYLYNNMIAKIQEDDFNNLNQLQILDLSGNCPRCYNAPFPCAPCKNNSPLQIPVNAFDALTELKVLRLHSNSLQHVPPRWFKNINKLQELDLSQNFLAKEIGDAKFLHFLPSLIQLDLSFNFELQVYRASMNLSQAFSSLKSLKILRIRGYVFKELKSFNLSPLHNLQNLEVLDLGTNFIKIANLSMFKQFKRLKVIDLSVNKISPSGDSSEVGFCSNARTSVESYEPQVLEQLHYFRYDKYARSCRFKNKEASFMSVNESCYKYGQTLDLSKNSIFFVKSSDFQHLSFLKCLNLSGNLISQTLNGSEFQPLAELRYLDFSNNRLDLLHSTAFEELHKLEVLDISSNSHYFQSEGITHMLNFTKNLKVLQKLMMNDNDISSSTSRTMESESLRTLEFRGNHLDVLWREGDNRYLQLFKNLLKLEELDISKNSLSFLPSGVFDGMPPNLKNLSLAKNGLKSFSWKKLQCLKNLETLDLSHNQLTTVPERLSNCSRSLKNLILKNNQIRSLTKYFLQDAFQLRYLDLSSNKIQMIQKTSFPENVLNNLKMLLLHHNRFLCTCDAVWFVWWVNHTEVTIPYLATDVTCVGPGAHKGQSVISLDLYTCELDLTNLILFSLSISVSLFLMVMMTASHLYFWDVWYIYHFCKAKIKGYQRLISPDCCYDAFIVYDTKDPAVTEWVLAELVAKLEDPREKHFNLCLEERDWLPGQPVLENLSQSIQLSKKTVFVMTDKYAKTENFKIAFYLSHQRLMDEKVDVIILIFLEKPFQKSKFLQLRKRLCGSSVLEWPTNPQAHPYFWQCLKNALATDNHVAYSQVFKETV
# Protocol: (§1) HEK-Blue-hTLR7/8/9 cell inhibition assay
# (§2) 1. HEK-Blue-hTLR7/8 cells (1 × 10^4 cells/well) and HEK-Blue-hTLR9 cells (1.5 × 10^4 cells/well) were seeded in a 384-well cell culture plate, with a volume of 30 µL per well. The plate was incubated at 37°C in a 5% CO2 incubator for 4 h. 2. The compound was prepared with DMSO and diluted in DMEM medium to 10 concentrations (1:3 dilution), with final concentrations of 10000, 3333.3, 1111.1, 370.4, 123.5, 41.2, 13.7, 4.6, 1.5, and 0.5 nM; R848 was prepared with DMSO and diluted in DMEM medium, with final concentrations of 0.8 µM (HEK-Blue-hTLR7) and 3 µM (HEK-Blue-hTLR8); ODN2006 was prepared with endotoxin-free water and diluted in DMEM medium, with a final concentration of 1 µM. 3. Cells treated with DMSO were used as the blank control group, while cells treated solely with Resiquimod (R848) were used as the positive control group for HEK-Blue-hTLR7/8, and cells treated solely with ODN2006 were used as the positive control group for HEK-Blue-hTLR9. Cells treated with the test compound together with R848 or ODN2006 were used as the test group. Two parallel wells were set for each group and were placed at 37°C in a 5% CO2 incubator for incubation. 4. After being incubated for 4 h, the 384-well plate of HEK-Blue-hTLR7/8 was taken out from the incubator, and R848 alone or both R848 and the diluted compound were separately added into each well. The plate was placed at 37°C in a 5% CO2 incubator for incubation for 16 h; the 384-well plate of HEK-Blue-hTLR9 was taken out from the incubator, and ODN2006 alone or both ODN2006 and the diluted compound were added separately to each well. The plate was incubated at 37°C in a 5% CO2 incubator for 16 h. 5. After being incubated for 16 h, the 384-well plate was removed from the incubator and centrifuged at 1000 rpm for 1 minute. The optical density value of each well at 620 nm was measured using a multifunctional microplate reader. 6. The cell inhibition rate was calculated as (1-(OD620 test group-OD620 blank group)/(OD620 positive group-OD620 blank group))×100%, and the half maximal inhibitory concentration (IC50) was calculated through curve fitting. Table 1: Activity of the compounds of the present disclosure in HEK-Blue-hTLR7/8/9 cellular assays
# HEK-Blue-hTLR8 cells = target: T2, HEK-Blue-hTLR8 cells (Homo sapiens, UniProt Q9NR97); test: HEK-Blue-hTLR8 cell inhibition assay; type: cell-based; details: R848 3 µM, 16 h, OD 620 nm, read-out: TLR8 IC50
# T2 construct: expressed in transfected cells; host or cells: HEK-Blue-hTLR8 cells (HEK293-derived reporter line)
# T2 sequence (Q9NR97 27-1041): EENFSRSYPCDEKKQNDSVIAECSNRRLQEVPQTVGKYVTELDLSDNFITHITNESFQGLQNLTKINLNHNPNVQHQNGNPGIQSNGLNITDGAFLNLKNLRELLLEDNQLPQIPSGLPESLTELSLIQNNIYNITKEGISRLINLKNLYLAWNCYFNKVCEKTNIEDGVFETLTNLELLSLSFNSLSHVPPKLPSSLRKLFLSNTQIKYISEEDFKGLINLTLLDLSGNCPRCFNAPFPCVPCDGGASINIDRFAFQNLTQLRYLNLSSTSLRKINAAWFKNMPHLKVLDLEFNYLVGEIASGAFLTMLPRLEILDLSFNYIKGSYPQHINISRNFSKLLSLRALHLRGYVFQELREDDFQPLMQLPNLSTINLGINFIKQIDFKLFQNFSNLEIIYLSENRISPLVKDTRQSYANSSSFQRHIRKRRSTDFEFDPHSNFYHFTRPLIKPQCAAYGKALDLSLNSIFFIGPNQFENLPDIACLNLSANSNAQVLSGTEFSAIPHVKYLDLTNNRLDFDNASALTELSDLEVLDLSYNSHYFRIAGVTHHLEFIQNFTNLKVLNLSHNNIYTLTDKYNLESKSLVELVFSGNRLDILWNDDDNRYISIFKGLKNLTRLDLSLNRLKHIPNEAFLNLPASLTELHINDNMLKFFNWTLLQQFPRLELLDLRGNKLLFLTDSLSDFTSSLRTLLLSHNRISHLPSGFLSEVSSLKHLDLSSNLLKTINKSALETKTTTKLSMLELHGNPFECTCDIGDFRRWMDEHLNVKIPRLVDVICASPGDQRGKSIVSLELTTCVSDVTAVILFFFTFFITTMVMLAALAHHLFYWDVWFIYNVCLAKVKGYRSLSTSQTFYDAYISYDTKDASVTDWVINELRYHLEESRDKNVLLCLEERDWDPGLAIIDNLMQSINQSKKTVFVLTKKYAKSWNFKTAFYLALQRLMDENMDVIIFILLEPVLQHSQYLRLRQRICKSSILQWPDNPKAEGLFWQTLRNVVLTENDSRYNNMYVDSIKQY
# Protocol: as §1, §2
pIC50 (HEK-Blue-hTLR7 cells),pIC50 (HEK-Blue-hTLR8 cells),Compound
> 7.00,> 7.00,"CN1CC2(CC(c3nnc([C@]45CN(c6ccc(C(F)(F)F)c7ncccc67)C[C@@]4(C(F)(F)F)C5)o3)C2)C1 [Compound 16, 2-(2-methyl-2-azaspiro[3.3]heptan-6-yl)-5-((1S,5R)-5-(trifluoromethyl)-3-(8-(trifluoromethyl)quinolin-5-yl)-3-azabicyclo[3.1.0]hexan-1-yl)-1,3,4-oxadiazole]"
> 7.00,> 7.00,"N#Cc1ccc(N2C[C@]3(c4nnc(OCCN5CCCC5)o4)C[C@]3(C(F)(F)F)C2)c2cccnc12 [Compound 48, 5-((1S,5R)-1-(5-(2-(pyrrolidin-1-yl)ethoxy)-1,3,4-oxadiazol-2-yl)-5-(trifluoromethyl)-3-azabicyclo[3.1.0]hexan-3-yl)quinoline-8-carbonitrile]"
< 6.00,< 6.00,"CN1CCC(c2nnc([C@]34CN(c5ccc(C#N)c6nc(Cl)ccc56)C[C@@]3(C(F)(F)F)C4)o2)CC1 [Compound 58, 2-chloro-5-((1S,5R)-1-(5-(1-methylpiperidin-4-yl)-1,3,4-oxadiazol-2-yl)-5-(trifluoromethyl)-3-azabicyclo[3.1.0]hexan-3-yl)quinoline-8-carbonitrile]"
< 6.00,> 6.00,"COc1ccc2c(N3C[C@]4(c5nnc(C6CCN(C)CC6)o5)C[C@]4(C(F)(F)F)C3)ccc(C#N)c2n1 [Compound 61, 2-methoxy-5-((1S,5R)-1-(5-(1-methylpiperidin-4-yl)-1,3,4-oxadiazol-2-yl)-5-(trifluoromethyl)-3-azabicyclo[3.1.0]hexan-3-yl)quinoline-8-carbonitrile]"
> 7.00,> 7.00,"CN1CCC(c2nnc([C@]34CN(c5ccc([N+](=O)[O-])c6ncccc56)C[C@@]3(C(F)(F)F)C4)o2)CC1 [Compound 62, 2-(1-methylpiperidin-4-yl)-5-((1S,5R)-3-(8-nitroquinolin-5-yl)-5-(trifluoromethyl)-3-azabicyclo[3.1.0]hexan-1-yl)-1,3,4-oxadiazole]"
> 7.00,> 7.00,"CN1CCN(c2nnc([C@]34CN(c5ccc(C#N)n6ncc(F)c56)C[C@@]3(C(F)(F)F)C4)o2)CC1 [Compound 63, 3-fluoro-4-((1S,5R)-1-(5-(4-methylpiperazin-1-yl)-1,3,4-oxadiazol-2-yl)-5-(trifluoromethyl)-3-azabicyclo[3.1.0]hexan-3-yl)pyrazolo[1,5-a]pyridine-7-carbonitrile]"
> 7.00,> 7.00,"Cc1ccc(N2C[C@]3(c4nnc(C5CCN(C)CC5)o4)C[C@]3(C(F)(F)F)C2)c2cccnc12 [Compound 65, 2-(1-methylpiperidin-4-yl)-5-((1S,5R)-5-(trifluoromethyl)-3-(8-methylquinolin-5-yl)-3-azabicyclo[3.1.0]hexan-1-yl)-1,3,4-oxadiazole]"
> 7.00,> 7.00,"CN1CCC(c2nnc([C@]34CN(c5ccc(Cl)c6ncccc56)C[C@@]3(C(F)(F)F)C4)o2)CC1 [Compound 67, 2-((1S,5R)-3-(8-chloroquinolin-5-yl)-5-(trifluoromethyl)-3-azabicyclo[3.1.0]hexan-1-yl)-5-(1-methylpiperidin-4-yl)-1,3,4-oxadiazole]"
> 7.00,> 7.00,"CN1CCC(c2nnc([C@]34CN(c5cnc(C#N)c6ncccc56)C[C@@]3(C(F)(F)F)C4)o2)CC1 [Compound 68, 5-((1S,5R)-1-(5-(1-methylpiperidin-4-yl)-1,3,4-oxadiazol-2-yl)-5-(trifluoromethyl)-3-azabicyclo[3.1.0]hexan-3-yl)-1,7-naphthyridine-8-carbonitrile]"
> 7.00,> 7.00,"CN1CCC(c2nnc([C@]34CN(c5ccc(F)c6ncccc56)C[C@@]3(C(F)(F)F)C4)o2)CC1 [Compound 69, 2-((1S,5R)-3-(8-fluoroquinolin-5-yl)-5-(trifluoromethyl)-3-azabicyclo[3.1.0]hexan-1-yl)-5-(1-methylpiperidin-4-yl)-1,3,4-oxadiazole]"
< 6.00,< 5.00,"CCc1nc2c(C#N)ccc(N3C[C@]4(c5nnc(C6CCN(C)CC6)o5)C[C@]4(C(F)(F)F)C3)c2nc1CC [Compound 70, 2,3-diethyl-8-((1S,5R)-1-(5-(1-methylpiperidin-4-yl)-1,3,4-oxadiazol-2-yl)-5-(trifluoromethyl)-3-azabicyclo[3.1.0]hexan-3-yl)quinoxaline-5-carbonitrile]"
< 6.00,> 6.00,"CN1CCC(c2nnc([C@]34CN(c5ccc(C#N)c6c5ccc(=O)n6C)C[C@@]3(C(F)(F)F)C4)o2)CC1 [Compound 72, 1-methyl-5-((1S,5R)-1-(5-(1-methylpiperidin-4-yl)-1,3,4-oxadiazol-2-yl)-5-(trifluoromethyl)-3-azabicyclo[3.1.0]hexan-3-yl)-2-oxo-1,2-dihydroquinoline-8-carbonitrile]"
< 6.00,< 6.00,"Cc1ccc2c(N3C[C@]4(c5nnc(C6CCN(C)CC6)o5)C[C@]4(C(F)(F)F)C3)ccc(C#N)c2n1 [Compound 73, 2-methyl-5-((1S,5R)-1-(5-(1-methylpiperidin-4-yl)-1,3,4-oxadiazol-2-yl)-5-(trifluoromethyl)-3-azabicyclo[3.1.0]hexan-3-yl)quinoline-8-carbonitrile]"
